Laboratory results from ChEMBL document CHEMBL3407338, “Synthesis and structure-activity relationship of novel 1,4-diazabicyclo[2.2.2]octane derivatives as potent antimicrobial agents” (Eur J Med Chem, 2015).
Converted amounts (≈) assume the structure as drawn.

Assays:
Candida albicans [1] = assay: Antimicrobial activity against 10^7 CFU/ml Candida albicans ATCC 32354 after 22 hrs by serial microdilution method; type: functional; settings: ATCC 32354, 22 h
Staphylococcus aureus [2] = assay: Antimicrobial activity against Staphylococcus aureus ATCC 25923 at 1 ug/ml after 24 hrs by agar diffusion method; type: functional; settings: ATCC 25923, 24 h, read-out: DIZ
Pseudomonas aeruginosa [3] = assay: Antimicrobial activity against 10^7 CFU/ml Pseudomonas aeruginosa ATCC 9027 after 22 hrs by serial microdilution method; type: functional; settings: ATCC 9027, 22 h
Staphylococcus aureus [4] = assay: Antimicrobial activity against 10^7 CFU/ml Staphylococcus aureus ATCC 25923 after 22 hrs by serial microdilution method; type: functional; settings: ATCC 25923, 22 h
Salmonella enterica [5] = assay: Antimicrobial activity against 10^7 CFU/ml Salmonella enterica ATCC 14028 after 22 hrs by serial microdilution method; type: functional; settings: ATCC 14028, 22 h
[6] = Cytotoxicity against mouse LMTK cells after 72 hrs by MTT assay; type: cell-based; settings: L-M(TK-)
HEK-293T = assay: Cytotoxicity against human HEK293T cells after 72 hrs by MTT assay; type: cell-based
Escherichia coli [7] = assay: Antimicrobial activity against 10^4 CFU/ml Escherichia coli ATCC 25922 after 22 hrs by serial microdilution method; type: functional; settings: ATCC 25922, 22 h
Staphylococcus aureus [8] = assay: Antimicrobial activity against 10^4 CFU/ml Staphylococcus aureus ATCC 25923 after 22 hrs by serial microdilution method; type: functional; settings: ATCC 25923, 22 h
Salmonella enterica [9] = assay: Antimicrobial activity against Salmonella enterica ATCC 14028 at 1 ug/ml after 24 hrs by agar diffusion method; type: functional; settings: ATCC 14028, 24 h, read-out: DIZ
Candida albicans [10] = assay: Antimicrobial activity against Candida albicans ATCC 32354 at 1 ug/ml after 24 hrs by agar diffusion method; type: functional; settings: ATCC 32354, 24 h, read-out: DIZ
Bacillus subtilis [11] = assay: Antimicrobial activity against 10^4 CFU/ml Bacillus subtilis ATCC 6633 after 22 hrs by serial microdilution method; type: functional; settings: ATCC 6633, 22 h
Bacillus subtilis [12] = assay: Antimicrobial activity against Bacillus subtilis ATCC 6633 at 1 ug/ml after 24 hrs by agar diffusion method; type: functional; settings: ATCC 6633, 24 h, read-out: DIZ
MEF = assay: Cytotoxicity against mouse MEF cells after 72 hrs by MTT assay; type: cell-based
Escherichia coli [13] = assay: Antimicrobial activity against 10^7 CFU/ml Escherichia coli ATCC 25922 after 22 hrs by serial microdilution method; type: functional; settings: ATCC 25922, 22 h
Pseudomonas aeruginosa [14] = assay: Antimicrobial activity against 10^4 CFU/ml Pseudomonas aeruginosa ATCC 9027 after 22 hrs by serial microdilution method; type: functional; settings: ATCC 9027, 22 h
Salmonella enterica [15] = assay: Antimicrobial activity against 10^4 CFU/ml Salmonella enterica ATCC 14028 after 22 hrs by serial microdilution method; type: functional; settings: ATCC 14028, 22 h
Escherichia coli [16] = assay: Antimicrobial activity against Escherichia coli ATCC 25922 at 1 ug/ml after 24 hrs by agar diffusion method; type: functional; settings: ATCC 25922, 24 h, read-out: DIZ
Candida albicans [17] = assay: Antimicrobial activity against 10^4 CFU/ml Candida albicans ATCC 32354 after 22 hrs by serial microdilution method; type: functional; settings: ATCC 32354, 22 h
Bacillus subtilis [18] = assay: Antimicrobial activity against 10^7 CFU/ml Bacillus subtilis ATCC 6633 after 22 hrs by serial microdilution method; type: functional; settings: ATCC 6633, 22 h
Pseudomonas aeruginosa [19] = assay: Antimicrobial activity against Pseudomonas aeruginosa ATCC 9027 at 1 ug/ml after 24 hrs by agar diffusion method; type: functional; settings: ATCC 9027, 24 h, read-out: DIZ
RPMI-8226 = assay: Cytotoxicity against human RPMI8226 cells after 72 hrs by MTT assay; type: cell-based; settings: RPMI-8226, 72 h
Salmonella enterica [20] = assay: Antimicrobial activity against Salmonella enterica ATCC 14028 at 0.1 ug/ml after 24 hrs by agar diffusion method; type: functional; settings: ATCC 14028, 24 h, read-out: DIZ
Bacillus subtilis [21] = assay: Antimicrobial activity against Bacillus subtilis ATCC 6633 at 0.1 ug/ml after 24 hrs by agar diffusion method; type: functional; settings: ATCC 6633, 24 h, read-out: DIZ
Escherichia coli [22] = assay: Antimicrobial activity against Escherichia coli ATCC 25922 at 0.1 ug/ml after 24 hrs by agar diffusion method; type: functional; settings: ATCC 25922, 24 h, read-out: DIZ
Staphylococcus aureus [23] = assay: Antimicrobial activity against Staphylococcus aureus ATCC 25923 at 0.1 ug/ml after 24 hrs by agar diffusion method; type: functional; settings: ATCC 25923, 24 h, read-out: DIZ
Candida albicans [24] = assay: Antimicrobial activity against Candida albicans ATCC 32354 at 0.1 ug/ml after 24 hrs by agar diffusion method; type: functional; settings: ATCC 32354, 24 h, read-out: DIZ
Pseudomonas aeruginosa [25] = assay: Antimicrobial activity against Pseudomonas aeruginosa ATCC 9027 at 0.1 ug/ml after 24 hrs by agar diffusion method; type: functional; settings: ATCC 9027, 24 h, read-out: DIZ

SMILES	MBC (Candida albicans [1])	MIC (Candida albicans [1])	zone of inhibition at 1 µg/mL (Staphylococcus aureus [2])	MBC (Pseudomonas aeruginosa [3])	MIC (Pseudomonas aeruginosa [3])	MBC (Staphylococcus aureus [4])	MIC (Staphylococcus aureus [4])	MBC (Salmonella enterica [5])	MIC (Salmonella enterica [5])	IC50 [6]	MBC (Escherichia coli [7])	MIC (Escherichia coli [7])	MBC (Staphylococcus aureus [8])	MIC (Staphylococcus aureus [8])	zone of inhibition at 0.1 µg/mL (Salmonella enterica [20])	zone of inhibition at 0.1 µg/mL (Bacillus subtilis [21])	zone of inhibition at 0.1 µg/mL (Escherichia coli [22])	zone of inhibition at 0.1 µg/mL (Staphylococcus aureus [23])	zone of inhibition at 0.1 µg/mL (Candida albicans [24])	zone of inhibition at 0.1 µg/mL (Pseudomonas aeruginosa [25])	also measured
CCCCCCCCCCCCCC[N+]12CC[N+](CCCCC[N+]34CC[N+](CCCCCCCCCCCCCC)(CC3)CC4)(CC1)CC2.[Br-].[Br-].[Br-].[Br-]	25 µg/mL	25 µg/mL	8 mm	> 100 µg/mL	> 100 µg/mL	> 100 µg/mL	50 µg/mL	> 100 µg/mL	100 µg/mL	219 µg/mL	50 µg/mL	25 µg/mL	100 µg/mL	6.3 µg/mL							IC50 (HEK-293T): 400 µg/mL; zone of inhibition at 1 µg/mL (Salmonella enterica [9]): 7 mm; zone of inhibition at 1 µg/mL (Candida albicans [10]): 0 mm; MBC (Bacillus subtilis [11]): 12.5 µg/mL; MIC (Bacillus subtilis [11]): 12.5 µg/mL; zone of inhibition at 1 µg/mL (Bacillus subtilis [12]): 7 mm; IC50 (MEF): 127 µg/mL; MBC (Escherichia coli [13]): > 100 µg/mL; MIC (Escherichia coli [13]): 50 µg/mL; MBC (Pseudomonas aeruginosa [14]): 50 µg/mL; MIC (Pseudomonas aeruginosa [14]): 50 µg/mL; MBC (Salmonella enterica [15]): > 100 µg/mL; MIC (Salmonella enterica [15]): 100 µg/mL; zone of inhibition at 1 µg/mL (Escherichia coli [16]): 7 mm; MBC (Candida albicans [17]): 25 µg/mL; MIC (Candida albicans [17]): 25 µg/mL; MBC (Bacillus subtilis [18]): 50 µg/mL; MIC (Bacillus subtilis [18]): 12.5 µg/mL; zone of inhibition at 1 µg/mL (Pseudomonas aeruginosa [19]): 6 mm; IC50 (RPMI-8226): 252 µg/mL
CCCCCCCCCCCCCCC[N+]12CC[N+](CCCCC[N+]34CC[N+](CCCCCCCCCCCCCCC)(CC3)CC4)(CC1)CC2															0 mm	0 mm	0 mm	0 mm	0 mm	0 mm	
CCCCCCCCCCCCCCCC[N+]12CC[N+](CCCCC[N+]34CC[N+](CCCCCCCCCCCCCCCC)(CC3)CC4)(CC1)CC2															0 mm	0 mm	0 mm	0 mm	0 mm	0 mm	
CCCCCCCCCCCCCCCCCC[N+]12CC[N+](CCCCC[N+]34CC[N+](CCCCCCCCCCCCCCCCCC)(CC3)CC4)(CC1)CC2															0 mm	0 mm	0 mm	0 mm	0 mm	0 mm	
CC[C@@]1(O)C(=O)OCc2c1cc1n(c2=O)Cc2cc3ccccc3nc2-1 [CAMPTOTHECIN]										11.7 µg/mL (≈ 33.6 µM)											IC50 (MEF): 5.87 µg/mL (≈ 16.9 µM); IC50 (RPMI-8226): 2.05 µg/mL (≈ 5.88 µM)
O=C(O)c1cn(C2CC2)c2cc(N3CCNCC3)c(F)cc2c1=O [CIPROFLOXACIN]	100 µg/mL (≈ 302 µM)	100 µg/mL (≈ 302 µM)	25 mm	3.1 µg/mL (≈ 9.36 µM)	1.6 µg/mL (≈ 4.83 µM)	< 0.8 µg/mL	< 0.8 µg/mL	< 0.8 µg/mL	< 0.8 µg/mL		< 0.8 µg/mL	< 0.8 µg/mL	< 0.8 µg/mL	< 0.8 µg/mL							zone of inhibition at 1 µg/mL (Salmonella enterica [9]): 35 mm; zone of inhibition at 1 µg/mL (Candida albicans [10]): 0 mm; MBC (Bacillus subtilis [11]): < 0.8 µg/mL; MIC (Bacillus subtilis [11]): < 0.8 µg/mL; zone of inhibition at 1 µg/mL (Bacillus subtilis [12]): 30 mm; MBC (Escherichia coli [13]): < 0.8 µg/mL; MIC (Escherichia coli [13]): < 0.8 µg/mL; MBC (Pseudomonas aeruginosa [14]): 3.1 µg/mL (≈ 9.36 µM); MIC (Pseudomonas aeruginosa [14]): 1.6 µg/mL (≈ 4.83 µM); MBC (Salmonella enterica [15]): < 0.8 µg/mL; MIC (Salmonella enterica [15]): < 0.8 µg/mL; zone of inhibition at 1 µg/mL (Escherichia coli [16]): 30 mm; MBC (Candida albicans [17]): > 100 µg/mL; MIC (Candida albicans [17]): > 100 µg/mL; MBC (Bacillus subtilis [18]): < 0.8 µg/mL; MIC (Bacillus subtilis [18]): < 0.8 µg/mL; zone of inhibition at 1 µg/mL (Pseudomonas aeruginosa [19]): 20 mm
